Experimental data: ChEMBL document CHEMBL5154803, “Spermine-Conjugated Short Proline-Rich Lipopeptides as Broad-Spectrum Intracellular Targeting Antibacterial Agents” (J Med Chem, 2022)
Values after ≈ are worked out from the molar mass of the structure shown. Active and inactive are the calls of the source. The rule behind the calls is not given here. Where a SMILES comes first, the peptide text is derived from it. The star is where a group is joined. Myristoyl = CCCCCCCCCCCCCC(=O)*; Decanoyl = CCCCCCCCCC(=O)*; Spermine = NCCCNCCCCNCCCN*

Experiments:
Staphylococcus aureus [1] = experiment: Antibacterial activity against MDR-methicillin-resistant Staphylococcus aureus ATCC BAA-44 assessed as reduction in bacterial growth measured after 18 hrs by broth microdilution method; assay type: functional
[2] = Cytotoxicity against human THP-1 cells assessed as cell viability at 50 uM by MTT assay; assay type: toxicity, cell-based; conditions: read-out: Activity
Acinetobacter baumannii = experiment: Antibacterial activity against Acinetobacter baumannii i ATCC 19606 assessed as reduction in bacterial growth measured after 18 hrs by broth microdilution method; assay type: functional
Escherichia coli [3] = experiment: Antibacterial activity against Escherichia coli ATCC 25922 assessed as reduction in bacterial growth measured after 18 hrs by broth microdilution method; assay type: functional
[4] = test system: Staphylococcus epidermidis; experiment: Antibacterial activity against Staphylococcus epidermidis ATCC 12228 assessed as reduction in bacterial growth measured after 18 hrs by broth microdilution method; assay type: functional
Staphylococcus aureus [5] = experiment: Antibacterial activity against methicillin-resistant Staphylococcus aureus ATCC 33591 assessed as reduction in bacterial growth measured after 18 hrs by broth microdilution method; assay type: functional
Staphylococcus aureus [6] = experiment: Antibacterial activity against Staphylococcus aureus ATCC 25923 assessed as reduction in bacterial growth measured after 18 hrs by broth microdilution method; assay type: functional
[7] = test system: Staphylococcus epidermidis; experiment: Antibacterial activity against methicillin-resistant Staphylococcus epidermidis ATCC 51625 assessed as reduction in bacterial growth measured after 18 hrs by broth microdilution method; assay type: functional
Pseudomonas aeruginosa = experiment: Antibacterial activity against Pseudomonas aeruginosa ATCC BAA-427 assessed as reduction in bacterial growth measured after 18 hrs by broth microdilution method; assay type: functional
Escherichia coli [8] = experiment: Antibacterial activity against Escherichia coli ATCC 25922 assessed as reduction in bacterial growth measured after 18 hrs in presence of 10% v/v human serum in MHB by broth microdilution method; assay type: functional; conditions: ATCC 25922, Serum
Erythrocyte = experiment: Hemolytic activity against human RBC assessed as hemolysis upto 100 uM incubated for 1 hr by ELISA plate reader analysis; assay type: toxicity, cell-based
Staphylococcus aureus [9] = experiment: In vivo antibacterial activity against Staphylococcus aureus ATCC 25923 infected in BALB/c mouse model assessed as reduction of bacterial load in spleen at 100 mg/kg, ip administered as single dose measured after 24 hrs by colony counting based analysis; assay type: functional, organism-based
Staphylococcus aureus [10] = experiment: In vivo antibacterial activity against Staphylococcus aureus ATCC 25923 infected in BALB/c mouse model assessed as reduction of bacterial load in liver at 100 mg/kg, ip administered as single dose measured after 24 hrs by colony counting based analysis; assay type: functional, organism-based
Staphylococcus aureus [11] = experiment: In vivo antibacterial activity against Staphylococcus aureus ATCC 25923 infected in BALB/c mouse model assessed as reduction of bacterial load in kidney at 100 mg/kg, ip administered as single dose measured after 24 hrs by colony counting based analysis; assay type: functional, organism-based
Cell membrane [12] = experiment: Disruption of bacterial cell membrane in Escherichia coli ATCC 25922 assessed as proportion of bacteria with damaged cell membrane at 5X MIC incubated for 1 hr by PI staining based flow cytometric analysis (reference value: 0.7%); assay type: subcellular
Cell membrane [13] = experiment: Disruption of bacterial cell membrane in Escherichia coli ATCC 25922 assessed as proportion of bacteria with intact cell membrane at 5X MIC incubated for 1 hr by PI staining based flow cytometric analysis (reference value: 99.3%); assay type: subcellular
Cell membrane [14] = experiment: Disruption of bacterial cell membrane in Escherichia coli ATCC 25922 at 5XMIC by SEM analysis; assay type: subcellular

Row | Compound | MIC (Staphylococcus aureus [1]) [µM] | MIC (Acinetobacter baumannii) [µM] | MIC (Escherichia coli [3]) [µM] | MIC [4] [µM] | MIC (Staphylococcus aureus [5]) [µM] | MIC (Staphylococcus aureus [6]) [µM] | MIC [7] [µM] | MIC (Pseudomonas aeruginosa) [µM] | other results
1 | CO[C@H]1/C=C/O[C@@]2(C)Oc3c(C)c(O)c4c(O)c(c(/C=N/N5CCN(C)CC5)c(O)c4c3C2=O)NC(=O)/C(C)=C\C=C\[C@H](C)[C@H](O)[C@@H](C)[C@@H](O)[C@@H](C)[C@H](OC(C)=O)[C@@H]1C [RIFAMPIN] | 1.25 (≈ 1.03 µg/mL) |  |  |  |  |  |  |  | 
2 | GENTAMICIN | 2.5 |  |  |  |  |  |  |  | 
3 | CCCCCCCCCCCCCC(=O)N1CCC[C@H]1C(=O)N[C@@H](CCCNC(=N)N)C(=O)N1CCC[C@H]1C(=O)N[C@@H](CCCNC(=N)N)C(=O)N1CCC[C@H]1C(=O)N1CCC[C@H]1C(=O)N[C@@H](CCCNC(=N)N)C(=O)NCCCNCCCCNCCCN (Myristoyl-PRPRPPR-Spermine) | 1.5 (≈ 1.9 µg/mL) | 6.2 (≈ 7.87 µg/mL) | 3.1 (≈ 3.94 µg/mL) | 1.5 (≈ 1.9 µg/mL) | 1.5 (≈ 1.9 µg/mL) | 3.1 (≈ 3.94 µg/mL) | 1.5 (≈ 1.9 µg/mL) | 6.2 (≈ 7.87 µg/mL) | viability at 50 µM [2]: 40%; MIC (Escherichia coli [8]): 3.1 µM; Activity (Erythrocyte): Toxic
4 | CC1(C)S[C@@H]2[C@H](NC(=O)[C@H](N)c3ccccc3)C(=O)N2[C@H]1C(=O)O [AMPICILLIN] | 125 (≈ 43.7 µg/mL) |  |  |  |  |  |  |  | 
5 | CN(C)[C@@H]1C(O)=C(C(N)=O)C(=O)[C@@]2(O)C(O)=C3C(=O)c4c(O)cccc4[C@@](C)(O)[C@H]3C[C@@H]12 [TETRACYCLINE] | 62.5 (≈ 27.8 µg/mL) |  |  |  |  |  |  |  | 
6 | CCCCCCCCCCCC(=O)NCCCNCCCCNCCCN | > 200 | > 200 | > 200 | > 200 | > 200 | > 200 | > 200 | > 200 | 
7 | CCCCCCCCCC(=O)NCCCNCCCCNCCCN | > 200 | > 200 | > 200 | > 200 | > 200 | > 200 | > 200 | > 200 | 
8 | H-PRPRPPR-OH | > 200 | > 200 | > 200 | > 200 | > 200 | > 200 | > 200 | > 200 | 
9 | C[C@H]1COc2c(N3CCN(C)CC3)c(F)cc3c(=O)c(C(=O)O)cn1c23 |  |  |  |  |  |  |  |  | Activity (Staphylococcus aureus [9]): Active; Activity (Staphylococcus aureus [10]): Active; Activity (Staphylococcus aureus [11]): Active
10 | N=C(N)NCCC[C@H](NC(=O)[C@@H]1CCCN1C(=O)[C@@H]1CCCN1C(=O)[C@H](CCCNC(=N)N)NC(=O)[C@@H]1CCCN1C(=O)[C@H](CCCNC(=N)N)NC(=O)[C@@H]1CCCN1)C(=O)NCCCNCCCCNCCCN (H-PRPRPPR-Spermine) | > 200 | > 200 | > 200 | > 200 | > 200 | 200 (≈ 212 µg/mL) | > 200 | > 200 | 
11 | O=C(N[C@H](CO)[C@H](O)c1ccc([N+](=O)[O-])cc1)C(Cl)Cl [CHLORAMPHENICOL] | 1000 (≈ 323 µg/mL) |  |  |  |  |  |  |  | 
12 | CN[C@H](CC(C)C)C(=O)N[C@H]1C(=O)N[C@@H](CC(N)=O)C(=O)N[C@H]2C(=O)N[C@H]3C(=O)N[C@H](C(=O)N[C@H](C(=O)O)c4cc(O)cc(O)c4-c4cc3ccc4O)[C@H](O)c3ccc(c(Cl)c3)Oc3cc2cc(c3O[C@@H]2O[C@H](CO)[C@@H](O)[C@H](O)[C@H]2O[C@H]2C[C@](C)(N)[C@H](O)[C@H](C)O2)Oc2ccc(cc2Cl)[C@H]1O [VANCOMYCIN] | 0.8 (≈ 1.16 µg/mL) | 56.8 (≈ 82.3 µg/mL) | 200 (≈ 290 µg/mL) | 0.4 (≈ 0.58 µg/mL) | 0.8 (≈ 1.16 µg/mL) | 0.4 (≈ 0.58 µg/mL) | 0.8 (≈ 1.16 µg/mL) |  | 
13 | NC[C@@H]1O[C@H](O[C@H]2[C@@H](O)[C@H](O[C@@H]3[C@@H](O)[C@H](N)C[C@H](N)[C@H]3O[C@H]3O[C@H](CN)[C@@H](O)[C@H](O)[C@H]3N)O[C@@H]2CO)[C@H](N)[C@@H](O)[C@@H]1O [FRAMYCETIN] | 125 (≈ 76.8 µg/mL) |  |  |  |  |  |  |  | 
14 | CC[C@H](C)[C@H](NC(=O)CN)C(=O)NCC(=O)N[C@@H](C)C(=O)N[C@H](C(=O)N[C@@H](CC(C)C)C(=O)N[C@@H](CCCCN)C(=O)N[C@H](C(=O)N[C@@H](CC(C)C)C(=O)N[C@H](C(=O)N[C@H](C(=O)NCC(=O)N[C@@H](CC(C)C)C(=O)N1CCC[C@H]1C(=O)N[C@@H](C)C(=O)N[C@@H](CC(C)C)C(=O)N[C@H](C(=O)N[C@@H](CO)C(=O)N[C@@H](Cc1c[nH]c2ccccc12)C(=O)N[C@H](C(=O)N[C@@H](CCCCN)C(=O)N[C@@H](CCCNC(=N)N)C(=O)N[C@@H](CCCCN)C(=O)N[C@@H](CCCNC(=N)N)C(=O)N[C@@H](CCC(N)=O)C(=O)N[C@@H](CCC(N)=O)C(N)=O)[C@@H](C)CC)[C@@H](C)CC)[C@@H](C)O)[C@@H](C)O)C(C)C)C(C)C |  |  |  |  |  |  |  |  | Activity (Cell membrane [12]): 64%; Activity (Cell membrane [13]): 36%; Activity (Cell membrane [14]): Active
15 | CCCCCCCCCC(=O)N1CCC[C@H]1C(=O)N[C@@H](CCCNC(=N)N)C(=O)N1CCC[C@H]1C(=O)N[C@@H](CCCNC(=N)N)C(=O)N1CCC[C@H]1C(=O)N1CCC[C@H]1C(=O)N[C@@H](CCCNC(=N)N)C(=O)O (Decanoyl-PRPRPPR-OH) | > 200 | > 200 | > 200 | > 200 | > 200 | > 200 | > 200 | > 200 | 
